Laboratory results as given in patent US12435061B2 (priority 2020, dated 2025).
Several values for one entry are separate records, joined by “and”; a condition that tells them apart may be missing. Equal entries are not always repeated. Where two headings read alike, the source gives them in different places.

Biological target: hTRPV3 (Homo sapiens (Human), UniProt Q8NET8)
Experiment: Whole-cell patch clamp, hTRPV3 Phase 1 / Phase 2 currents
Type: cell-based
Description: Whole-cell patch clamp experiments permit the detection of currents through the TRPV3 channel in the cell line described above. A glass electrode is brought into contact with a single cell and the membrane is then ruptured, permitting control of the voltage of the cell membrane and measurement of currents flowing across the membrane using the amplifier attached to the electrode. A perfusion system permits control of the extracellular solution, including the addition of blockers and activators of the current. The current can be activated by heating this solution to 28° C. or warmer or by addition of 20 μM 2-APB to the solution.
TRPV3 cells were induced 20-48 hours, removed from growth plates, and replated at low density (to attain good single-cell physical separation) on glass coverslips for measurement. In some cases, cells were grown in low density overnight on glass coverslips. Patch clamp recordings were made in the whole-cell mode with a holding potential of −40 mV. Every 5 seconds, a voltage ramp was applied from −120 to +100 mV, 400 ms in duration. Currents elicited were quantified at −80 mV and +80 mV. […] External solution was Ringer's solution described above.
P1 refers to the Phase 1 current for human (h) TRPV3, and P2 refers to the Phase 2 current for human (h) TRPV3.
In Tables 3 and 4, Phase 1 refers to Phase 1 current for human (h) TRPV3 or rat (r) TRPV3, and Phase 2 refers to Phase 2 current for human (h) TRPV3 or rat (r) TRPV3. The hTRPV3 and rTRPV3 assays were performed as described herein. hERG refers to the inhibition the human ERG (hERG) channel. NaV1.5, refers to the pore forming aL-subunit of the voltage-dependent cardiac Na(+) channel and is an integral membrane protein involved in the initiation and conduction of action potentials. hTRPV3 HAMA IC50 refers to the IC50 of TRPV3 cells stably expressed in TRex-293 cells. Solubility Ringer refers to the compounds' solubility in Ringer's solution. LM T1/2 refers to liver microsome half-lives in either rat or human liver microsomes. FLIPR IC50 refers to the IC50 of the test compounds against recombinant hTRPV3 cells.

[1] = Phase 1 current, inward, whole-cell patch clamp, read-out: hTRPV3 Patch P1 Inwd
[2] = Phase 1 current, read-out: hTRPV3 (nM) (Phase 1)
[3] = Phase 2 current, inward, whole-cell patch clamp, read-out: hTRPV3 Patch P2 Inwd
[4] = Phase 2 current, read-out: hTRPV3 (nM) (Phase 2)
[5] = Phase 1 current, human TRPV3, read-out: hTRPV3 (nM) Phase 1

hTRPV3, sequence (Q8NET8 whole entry): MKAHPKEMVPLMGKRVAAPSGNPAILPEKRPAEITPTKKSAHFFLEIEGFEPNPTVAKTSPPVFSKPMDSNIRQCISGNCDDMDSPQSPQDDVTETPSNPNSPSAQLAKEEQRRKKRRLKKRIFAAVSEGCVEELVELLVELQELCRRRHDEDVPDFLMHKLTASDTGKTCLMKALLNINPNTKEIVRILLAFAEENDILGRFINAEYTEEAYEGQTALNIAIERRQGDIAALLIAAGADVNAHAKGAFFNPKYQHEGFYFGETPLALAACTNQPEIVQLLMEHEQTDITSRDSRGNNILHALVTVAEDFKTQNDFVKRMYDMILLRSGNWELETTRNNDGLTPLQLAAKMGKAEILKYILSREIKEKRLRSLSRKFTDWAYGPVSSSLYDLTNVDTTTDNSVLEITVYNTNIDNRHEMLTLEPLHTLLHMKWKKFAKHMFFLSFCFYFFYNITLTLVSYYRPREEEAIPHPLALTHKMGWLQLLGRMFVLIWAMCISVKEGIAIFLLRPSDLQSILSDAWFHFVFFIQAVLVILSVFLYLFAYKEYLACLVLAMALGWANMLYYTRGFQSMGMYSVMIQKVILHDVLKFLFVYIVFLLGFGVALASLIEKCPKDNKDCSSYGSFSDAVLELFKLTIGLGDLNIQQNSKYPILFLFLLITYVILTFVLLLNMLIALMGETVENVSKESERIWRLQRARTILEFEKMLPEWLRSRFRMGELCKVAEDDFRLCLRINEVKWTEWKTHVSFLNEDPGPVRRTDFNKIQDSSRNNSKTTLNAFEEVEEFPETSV

SMILES | IC50 [1] | IC50 [2] | IC50 [3] | other results
OCc1cc(-c2ccccc2F)ccc1N1CC[C@H](Oc2ccc(C(F)(F)F)cn2)C1 [Compound 1-150, (S)-(2′-fluoro-4-(3-(5-(trifluoromethyl)pyridin-2-yloxy)pyrrolidin-1-yl)biphenyl-3-yl)methanol] | 10 to 100 nM | 71.7 nM | 10 to 100 nM | IC50 [4]: 74.7 nM
O=C(c1ccc(C2CCN(C(=O)c3ncccc3Cl)C2)c(CO)c1)c1ccccc1Cl (centres unmarked) [Compound 2-14, (3-(4-(2-chlorobenzoyl)-2-(hydroxymethyl)phenyl)pyrrolidin-1-yl)(3-chloropyridin-2-yl)methanone] | > 1000 nM |  |  | IC50 [5]: > 3200 nM
Cc1cccnc1O[C@H]1CCN(c2ccc(-c3ccccc3)cc2C(C)O)C1 (stereo partly drawn) [Compound 1-169, 1-(4-((S)-3-(3-methylpyridin-2-yloxy)pyrrolidin-1-yl)biphenyl-3-yl)ethanol] | 100 to 1000 nM | 476 nM | 100 to 1000 nM | IC50 [4]: 655 nM
N#Cc1ccccc1N1CCC(Oc2ccc3ccccc3n2)C1=O (centres unmarked) [Compound 1-103, 2-(2-oxo-3-(quinolin-2-yloxy)pyrrolidin-1-yl)benzonitrile] | > 1000 nM | > 3200 nM |  | 
FC(F)(F)c1ccc(O[C@@H]2CCN(c3ccccc3OC3CCCC3)C2)nc1 [Compound 1-36, (R)-2-(1-(2-(cyclopentyloxy)phenyl)pyrrolidin-3-yloxy)-5-(trifluoromethyl)pyridine] | > 1000 nM |  |  | 
O=C1C(Oc2ccc3ccccc3n2)CCN1c1ccccc1 (centres unmarked) [Compound 1-104, 1-phenyl-3-(quinolin-2-yloxy)pyrrolidin-2-one] | > 1000 nM | > 3200 nM |  | 
Cc1cccnc1O[C@H]1CCN(c2ccc(Oc3ccccc3)cc2C(N)=O)C1 [Compound 1-163] | > 1000 nM | 2180 nM |  | 
NC(=O)c1cc(Cc2ccccc2)ccc1N1CC[C@H](Oc2ncccc2Cl)C1 [Compound 1-145, (S)-5-benzyl-2-(3-(3-chloropyridin-2-yloxy)pyrrolidin-1-yl)benzamide] | > 1000 nM | 1950 nM | 100 to 1000 nM | IC50 [4]: 749 nM
CC(C)NC(=O)c1ccccc1N1CC[C@@H](Oc2ccc(C(F)(F)F)cn2)C1 [Compound 1-49, (R)—N-isopropyl-2-(3-(5-(trifluoromethyl)pyridin-2-yloxy)pyrrolidin-1-yl)benzamide] | > 1000 nM |  |  | 
Cc1cccnc1O[C@H]1CCN(c2ccc(-c3ccccc3)cc2CCO)C1 [Compound 1-193, (S)-2-(4-(3-(3-methylpyridin-2-yloxy)pyrrolidin-1-yl)biphenyl-3-yl)ethanol] | 100 to 1000 nM | 260 nM |  | 
CC(O)c1cc(F)ccc1Oc1ccc(N2CC[C@H](Oc3ccccn3)C2)c(CO)c1 (some centres unmarked) [Compound 1-326] | > 1000 nM | 1470 nM | 100 to 1000 nM | IC50 [4]: 575 nM
O=C(c1ccc(CCO)c(N2CC[C@H](Oc3ncccc3Cl)C2)c1)c1ccccc1Cl [Compound 1-360, (S)-(2-chlorophenyl)(3-(3-(3-chloropyridin-2-yloxy)pyrrolidin-1-yl)-4-(2-hydroxyethyl)phenyl)methanone] | 100 to 1000 nM | 770 nM |  | 
CC(C)Oc1ccccc1N1CC[C@@H](Oc2ccc(C(F)(F)F)cn2)C1 [Compound 1-37, (R)-2-(1-(2-isopropoxyphenyl)pyrrolidin-3-yloxy)-5-(trifluoromethyl)pyridine] | > 1000 nM |  |  | 
NC(=O)c1cc(-c2ccccc2Cl)ccc1N1CCC(Oc2ccc3ccccc3n2)C1=O (centres unmarked) [Compound 1-114, 2′-chloro-4-(2-oxo-3-(quinolin-2-yloxy)pyrrolidin-1-yl)biphenyl-3-carboxamide] | > 1000 nM | ~3900 nM | > 1000 nM | IC50 [4]: ~3150 nM
OCc1cc(C2CCOCC2)ccc1N1CC[C@H](Oc2ccc(C(F)(F)F)cn2)C1 [Compound 1-276, (S)-(5-(tetrahydro-2H-pyran-4-yl)-2-(3-(5-(trifluoromethyl)pyridin-2-yloxy)pyrrolidin-1-yl)phenyl)methanol] | > 1000 nM | > 3200 nM |  | 
Cc1ccc(O[C@H]2CCN(c3ccc(Oc4ccccc4)nc3CO)C2)nc1 [Compound 1-211] | 100 to 1000 nM | 931 nM | 100 to 1000 nM | IC50 [4]: 936 nM

SMILES | IC50 [1] | IC50 [2] | IC50 [3] | other results
COCc1ccccc1-c1ccc(C2CCN(C(=O)c3ccc(F)cn3)C2)c(CO)c1 (centres unmarked) [Compound 2-61, (5-fluoropyridin-2-yl)(3-(3-(hydroxymethyl)-2′-(methoxymethyl)biphenyl-4-yl)pyrrolidin-1-yl)methanone] | 100 to 1000 nM |  |  | IC50 [5]: 153 nM
Cc1ccccc1-c1ccc(N2CC[C@H](Oc3ccc(C(F)(F)F)cn3)C2)c(CCCO)c1 [Compound 1-176, (S)-3-(2′-methyl-4-(3-(5-(trifluoromethyl)pyridin-2-yloxy)pyrrolidin-1-yl)biphenyl-3-yl)propan-1-ol] | > 1000 nM | > 3200 nM | > 1000 nM | IC50 [4]: 2550 nM
O=C(c1ccc(N2CC[C@H](Oc3ncccc3Cl)C2)c(CO)c1)c1ccccc1Cl [Compound 1-263, (S)-(2-chlorophenyl)(4-(3-(3-chloropyridin-2-yloxy)pyrrolidin-1-yl)-3-(hydroxymethyl)phenyl)methanone] | 100 to 1000 nM | 444 nM |  | 
CNC(=O)c1ccccc1N1CC[C@H](Oc2ccc(C(F)(F)F)cn2)C1 [Compound 1-39, (S)—N-methyl-2-(3-(5-(trifluoromethyl)pyridin-2-yloxy)pyrrolidin-1-yl)benzamide] | > 1000 nM |  |  | 
Cc1cccc(C(O)c2ccc(C3CCN(C(=O)c4ncccc4Cl)C3)c(CO)c2)c1 (centres unmarked) [Compound 2-2, (3-chloropyridin-2-yl)(3-(4-(hydroxy(m-tolyl)methyl)-2-(hydroxymethyl)phenyl)pyrrolidin-1-yl)methanone] | 100 to 1000 nM |  |  | 
CC(C)c1ccccc1Oc1ccc(C2CCN(C(=O)c3ncccc3F)C2)c(C(N)=O)c1 (centres unmarked) [Compound 2-46, 2-(1-(3-fluoropicolinoyl)pyrrolidin-3-yl)-5-(2-isopropylphenoxy)benzamide] | > 1000 nM |  |  | IC50 [5]: ~2250 nM
CCc1ccccc1Oc1ccc(C2CC(=O)N(Cc3ccccn3)C2)c(C(N)=O)c1 (centres unmarked) [Compound 2-100, 5-(2-ethylphenoxy)-2-(5-oxo-1-(pyridin-2-ylmethyl)pyrrolidin-3-yl)benzamide] | > 1000 nM |  |  | IC50 [5]: > 3200 nM
O=C(c1ncccc1Cl)N1CCC(c2ccc(Oc3ccccc3)cc2CO)C1 (centres unmarked) [Compound 2-85, (3-chloropyridin-2-yl)(3-(2-(hydroxymethyl)-4-phenoxyphenyl)pyrrolidin-1-yl)methanone] |  |  |  | IC50 [5]: 3310 nM
Cc1ccc(O[C@H]2CCN(c3ccc(-c4ccccn4)nc3CO)C2)nc1 [Compound 1-244, (S)-(5-(3-(5-methylpyridin-2-yloxy)pyrrolidin-1-yl)-2, 2′-bipyridin-6-yl)methanol] | > 1000 nM | 4650 nM |  | 
Nc1cc(-c2ccccc2)ccc1N1CC[C@@H](Oc2ccc(C(F)(F)F)cn2)C1 [Compound 1-93, (R)-4-(3-(5-(trifluoromethyl)pyridin-2-yloxy)pyrrolidin-1-yl)biphenyl-3-amine] |  |  |  | hTRPV3 (nM) (Phase 2) (Phase 2 current): Incomplete Block; IC50 (hTRPV3 (nM) (Phase 2), Phase 2 current): 494 nM and < 320 nM
N#Cc1ccccc1N1CCC(Oc2ccc(C(F)(F)F)cn2)C1 (centres unmarked) [Compound 1-5] | > 1000 nM |  | > 1000 nM | 
CC(=O)c1ccc(Oc2ccc(N3CC[C@H](Oc4ccccn4)C3)c(CO)c2)c(F)c1 [Compound 1-306] | 100 to 1000 nM | 982 nM | 100 to 1000 nM | IC50 [4]: 735 nM
CCc1ccccc1Oc1ccc(N2CC[C@H](Oc3ccc(C#N)cn3)C2)c(CCO)c1 [Compound 1-361] | 100 to 1000 nM | 117 nM |  | 
CCc1ccccc1-c1ccc(C2CCN(C(=O)c3ncccc3F)C2)c(CO)c1 (centres unmarked) [Compound 2-54, (3-(2′-ethyl-3-(hydroxymethyl)biphenyl-4-yl)pyrrolidin-1-yl)(3-fluoropyridin-2-yl) methanone] | 10 to 100 nM |  |  | IC50 [5]: 91.3 nM
NCc1ccccc1N1CC[C@@H](Oc2ccc(C(F)(F)F)cn2)C1 [Compound 1-20, (R)-(2-(3-(5-(trifluoromethyl)pyridin-2-yloxy)pyrrolidin-1-yl)phenyl)methanamine] | > 1000 nM |  | > 1000 nM | 
N#Cc1ccc(-c2ccccc2)cc1N1CC[C@H](Oc2ccc(C(F)(F)F)cn2)C1 [Compound 1-62, (S)-3-(3-(5-(trifluoromethyl)pyridin-2-yloxy)pyrrolidin-1-yl)biphenyl-4-carbonitrile] | > 1000 nM |  | > 1000 nM | 
